The target in this assay is T1, ZAP-70 (Homo sapiens, UniProt P43403).
T1 sequence (P43403 1-619): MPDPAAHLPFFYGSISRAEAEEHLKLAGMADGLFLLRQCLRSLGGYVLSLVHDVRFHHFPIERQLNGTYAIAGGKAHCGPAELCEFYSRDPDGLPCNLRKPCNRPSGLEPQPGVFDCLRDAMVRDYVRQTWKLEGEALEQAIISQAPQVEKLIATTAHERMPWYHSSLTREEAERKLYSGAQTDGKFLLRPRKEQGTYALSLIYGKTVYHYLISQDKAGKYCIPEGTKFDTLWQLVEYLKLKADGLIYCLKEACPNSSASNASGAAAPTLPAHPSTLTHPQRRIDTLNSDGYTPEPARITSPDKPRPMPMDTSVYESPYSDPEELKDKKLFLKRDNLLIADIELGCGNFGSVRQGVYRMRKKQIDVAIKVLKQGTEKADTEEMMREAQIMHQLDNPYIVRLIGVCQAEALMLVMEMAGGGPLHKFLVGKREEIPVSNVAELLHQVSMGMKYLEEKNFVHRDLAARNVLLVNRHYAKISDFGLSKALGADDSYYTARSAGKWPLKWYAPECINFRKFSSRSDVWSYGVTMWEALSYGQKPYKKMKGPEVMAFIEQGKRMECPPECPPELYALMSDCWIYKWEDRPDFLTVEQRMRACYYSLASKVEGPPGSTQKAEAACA
In words: DELFIA assay (ZAP-70 kinase, phosphorylation of biotinylated poly(glu,tyr)). In kind it is biochemical. Particulars: ZAP-70 DELFIA, class symbols; read-out: Activity (IC50 in vitro). Summed up:
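3.1 nM ZAP-70 pre-incubated 10 min at room temperature with compound ([…]) and 62.5 nM biotinylated poly(glu,tyr) in 62.5 mM Mops pH 7.0, 12.5 mM MgCl2, 12.5% glycerol, 6.25% DMSO (pre-incubation concentrations); ATP added from 5 mM stock, 30 min reaction, EDTA stop. Phosphorylation read by DELFIA europium anti-phosphotyrosine fluorescence (340/615).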

The results in this text go back to patent US20080119515A1, “Heterocyclic Kinase Inhibitors: Methods of Use and Synthesis” (priority 2003, published 2008).

For orientation: IC50 means the concentration at which inhibition is half-maximal.

Structures are written as SMILES.

As for `O=C(c1cc(Cc2ccc(N3CCN(Cc4ccncc4)CC3)cc2)nc2ccc(-c3ccc4c(c3)OCO4)cc12)N1CCCC1CN1CCCC1` (stereo not shown) [Compound 443], the IC50 was under 1 µM.

`O=C(c1cc(Cc2ccc(N3CCN(CCc4ccncc4)CC3)cc2)nc2ccc(-c3ccc4c(c3)OCO4)cc12)N1CCCC1CN1CCCC1` (stereo not shown) [Compound 444]: the IC50 is under 1 µM.

Consider `O=C(c1cc(Cc2ccc(N3CCC4(CC3)CNC4)cc2)nc2ccc(-c3ccc4c(c3)OCO4)cc12)N1CCCC1CN1CCCC1` (stereo not shown) [Compound 445], for which the IC50 was under 1 µM.

With `O=C(c1cc(Cc2ccc(N3CCC4(CCNC4)CC3)cc2)nc2ccc(-c3ccc4c(c3)OCO4)cc12)N1CCCC1CN1CCCC1` (stereo not shown) [Compound 446], the IC50 was under 1 µM.

For `O=C(c1cc(Cc2ccc(N3CCC4(CCNCC4)CC3)cc2)nc2ccc(-c3ccc4c(c3)OCO4)cc12)N1CCCC1CN1CCCC1` (stereo not shown) [Compound 447], the IC50 was under 1 µM.

Regarding `CN1CCN(c2ccc(Nc3cc(Nc4ccc(N5CCN(C)CC5)cc4)c4cc(-c5ccc6c(c5)OCO6)ccc4n3)cc2)CC1` [Compound 448], the IC50 was under 1 µM.

Take `c1cc(N2CCNCC2)ccc1Nc1cc(Nc2ccc(N3CCNCC3)cc2)c2cc(-c3ccc4c(c3)OCO4)ccc2n1` [Compound 449]: the IC50 is under 1 µM.
